Test results as given in article PMC9963398, “Discovery of New Quinolone-Based Diarylamides as Potent B-RAF^V600E/C-RAF Kinase Inhibitors Endowed with Promising In Vitro Anticancer Activity” (International Journal of Molecular Sciences, 2023).

How the values were obtained:
Experiment in all cases: NCI-60 five-dose SRB assay
Assay type in all cases: cell-based
A498 = conditions: Homo sapiens; A498, Renal cancer, five-dose test
Protocol: (§1) The anticancer screening of target compounds over a full panel of 60 human cancer cell lines was carried out using Sulforhodamine B (SRB) assay at the National Cancer Institute (NCI), Bethesda, Maryland, USA, employing the standard protocol.

A549/ATCC = conditions: Homo sapiens, NSCL cancer, five-dose test
Protocol: as §1

ACHN = conditions: Homo sapiens, Renal cancer, five-dose test
Protocol: as §1

BT-549 = conditions: Homo sapiens; BT-549, Breast cancer, five-dose test
Protocol: as §1

COLO 205 = conditions: Homo sapiens; COLO 205, Colon cancer, five-dose test
Protocol: as §1

DU-145 = conditions: Homo sapiens; DU-145, Prostate cancer, five-dose test
Protocol: as §1

EKVX = conditions: Homo sapiens, NSCL cancer, five-dose test
Protocol: as §1

HCC-2998 = conditions: Homo sapiens; HCC-2998, Colon cancer, five-dose test
Protocol: as §1

HCT-116 = conditions: Homo sapiens; HCT-116, Colon cancer, five-dose test
Protocol: as §1

HCT-15 = conditions: Homo sapiens; HCT-15, Colon cancer, five-dose test
Protocol: as §1

HT29 = conditions: Homo sapiens, HT-29; HT29, Colon cancer, five-dose test
Protocol: as §1

IGROV1 = conditions: Homo sapiens, IGROV-1; IGROV1, Ovarian cancer, five-dose test
Protocol: as §1

K-562 = conditions: Homo sapiens, K562; K-562, Leukemia, five-dose test
Protocol: as §1

LOX IMVI = conditions: Homo sapiens, Melanoma, five-dose test
Protocol: as §1

MALME-3M = conditions: Homo sapiens, Melanoma, five-dose test
Protocol: as §1

MCF7 = conditions: Homo sapiens; MCF7, Breast cancer, five-dose test
Protocol: as §1

MDA-MB-435 = conditions: Homo sapiens; MDA-MB-435, Melanoma, five-dose test
Protocol: as §1

NCI-H23 = conditions: Homo sapiens; NCI-H23, NSCL cancer, five-dose test
Protocol: as §1

NCI-H322M = conditions: Homo sapiens, NSCL cancer, five-dose test
Protocol: as §1

NCI-H460 = conditions: Homo sapiens; NCI-H460, NSCL cancer, five-dose test
Protocol: as §1

NCI-H522 = conditions: Homo sapiens; NCI-H522, NSCL cancer, five-dose test
Protocol: as §1

OVCAR-3 = conditions: Homo sapiens; OVCAR-3, Ovarian cancer, five-dose test
Protocol: as §1

OVCAR-4 = conditions: Homo sapiens; OVCAR-4, Ovarian cancer, five-dose test
Protocol: as §1

OVCAR-5 = conditions: Homo sapiens; OVCAR-5, Ovarian cancer, five-dose test
Protocol: as §1

OVCAR-8 = conditions: Homo sapiens; OVCAR-8, Ovarian cancer, five-dose test
Protocol: as §1

RPMI-8226 = conditions: Homo sapiens; RPMI-8226, Leukemia, five-dose test
Protocol: as §1

RXF 393 = conditions: Homo sapiens; RXF 393, Renal cancer, five-dose test
Protocol: as §1

SF-268 = conditions: Homo sapiens; SF-268, CNS cancer, five-dose test
Protocol: as §1

SF-295 = conditions: Homo sapiens; SF-295, CNS cancer, five-dose test
Protocol: as §1

SF-539 = conditions: Homo sapiens; SF-539, CNS cancer, five-dose test
Protocol: as §1

SK-MEL-28 = conditions: Homo sapiens; SK-MEL-28, Melanoma, five-dose test
Protocol: as §1

SK-MEL-2 = conditions: Homo sapiens; SK-MEL-2, Melanoma, five-dose test
Protocol: as §1

SK-MEL-5 = conditions: Homo sapiens; SK-MEL-5, Melanoma, five-dose test
Protocol: as §1

SK-OV-3 = conditions: Homo sapiens; SK-OV-3, Ovarian cancer, five-dose test
Protocol: as §1

SN12C = conditions: Homo sapiens, Renal cancer, five-dose test
Protocol: as §1

SNB-19 = conditions: Homo sapiens; SNB-19, CNS cancer, five-dose test
Protocol: as §1

SNB-75 = conditions: Homo sapiens; SNB-75, CNS cancer, five-dose test
Protocol: as §1

T-47D = conditions: Homo sapiens, T47D, Breast cancer, five-dose test
Protocol: as §1

TK-10 = conditions: Homo sapiens; TK-10, Renal cancer, five-dose test
Protocol: as §1

U251 = conditions: Homo sapiens, U-251; U251, CNS cancer, five-dose test
Protocol: as §1

UACC-257 = conditions: Homo sapiens; UACC-257, Melanoma, five-dose test
Protocol: as §1

UACC-62 = conditions: Homo sapiens; UACC-62, Melanoma, five-dose test
Protocol: as §1

## COc1cccc2nc(Nc3cccc(NC(=O)c4ccc(CN5CCN(C)CC5)c(C(F)(F)F)c4)c3)ccc12 [Compound 14a, 4-((4-methylpiperazin-1-yl)methyl)-N-(3-((5-methoxyquinolin-2-yl)amino)phenyl)-3-(trifluoromethyl)benzamide]
A498
  GI50: 2 µM
A549/ATCC
  GI50: 2.44 µM
ACHN
  GI50: 2.05 µM
BT-549
  GI50: 7.01 µM
COLO 205
  GI50: 1.79 µM
DU-145
  GI50: 1.98 µM
EKVX
  GI50: 2.1 µM
HCC-2998
  GI50: 1.99 µM
HCT-116
  GI50: 1.82 µM
HCT-15
  GI50: 1.78 µM
HT29
  GI50: 1.86 µM
IGROV1
  GI50: 2.25 µM
K-562
  GI50: 2.7 µM
LOX IMVI
  GI50: 1.74 µM
MALME-3M
  GI50: 1.65 µM
MCF7
  GI50: 1.57 µM
MDA-MB-435
  GI50: 1.68 µM
NCI-H23
  GI50: 1.91 µM
NCI-H322M
  GI50: 2.29 µM
NCI-H460
  GI50: 1.71 µM
NCI-H522
  GI50: 1.79 µM
OVCAR-3
  GI50: 2.15 µM
OVCAR-4
  GI50: 2.21 µM
OVCAR-5
  GI50: 1.84 µM
OVCAR-8
  GI50: 3.09 µM
RPMI-8226
  GI50: 2.78 µM
RXF 393
  GI50: 1.73 µM
SF-268
  GI50: 1.69 µM
SF-295
  GI50: 1.77 µM
SF-539
  GI50: 1.64 µM
SK-MEL-28
  GI50: 1.71 µM
SK-MEL-2
  GI50: 3.52 µM
SK-MEL-5
  GI50: 1.62 µM
SK-OV-3
  GI50: 9.22 µM
SN12C
  GI50: 1.71 µM
SNB-19
  GI50: 1.78 µM
SNB-75
  GI50: 1.6 µM
T-47D
  GI50: 2.28 µM
TK-10
  GI50: 2.15 µM
U251
  GI50: 1.92 µM
UACC-257
  GI50: 1.98 µM
UACC-62
  GI50: 1.75 µM

## COc1cccc2nc(Nc3cccc(NC(=O)c4ccc(CN5CCCN(C)CC5)c(C(F)(F)F)c4)c3)ccc12 [Compound 14b, N-(3-((5-methoxyquinolin-2-yl)amino)phenyl)-4-((4-methyl-1,4-diazepan-1-yl)methyl)-3-(trifluoromethyl)benzamide]
A498
  GI50: 13.5 µM
A549/ATCC
  GI50: 1.9 µM
ACHN
  GI50: 1.87 µM
BT-549
  GI50: 2.06 µM
COLO 205
  GI50: 1.81 µM
DU-145
  GI50: 2.19 µM
EKVX
  GI50: 1.72 µM
HCC-2998
  GI50: 1.71 µM
HCT-116
  GI50: 1.67 µM
HCT-15
  GI50: 1.62 µM
HT29
  GI50: 1.66 µM
IGROV1
  GI50: 1.81 µM
K-562
  GI50: 1.23 µM
LOX IMVI
  GI50: 1.68 µM
MALME-3M
  GI50: 1.72 µM
MCF7
  GI50: 1.59 µM
MDA-MB-435
  GI50: 1.8 µM
NCI-H23
  GI50: 1.68 µM
NCI-H322M
  GI50: 2.12 µM
NCI-H460
  GI50: 1.76 µM
NCI-H522
  GI50: 1.76 µM
OVCAR-3
  GI50: 2.14 µM
OVCAR-4
  GI50: 2.67 µM
OVCAR-5
  GI50: 1.71 µM
OVCAR-8
  GI50: 2.03 µM
RPMI-8226
  GI50: 1.93 µM
RXF 393
  GI50: 1.66 µM
SF-268
  GI50: 1.77 µM
SF-295
  GI50: 1.74 µM
SF-539
  GI50: 1.55 µM
SK-MEL-28
  GI50: 1.68 µM
SK-MEL-2
  GI50: 2.15 µM
SK-MEL-5
  GI50: 1.71 µM
SK-OV-3
  GI50: 4.33 µM
SN12C
  GI50: 1.63 µM
SNB-19
  GI50: 1.72 µM
SNB-75
  GI50: 1.52 µM
T-47D
  GI50: 5.43 µM
TK-10
  GI50: 4.91 µM
U251
  GI50: 1.76 µM
UACC-257
  GI50: 1.86 µM
UACC-62
  GI50: 1.81 µM

## CN1CCCN(Cc2ccc(C(=O)Nc3cccc(Nc4ccc5cc(O)ccc5n4)c3)cc2C(F)(F)F)CC1 [Compound 18b, N-(3-((6-hydroxyquinolin-2-yl)amino)phenyl)-4-((4-methyl-1,4-diazepan-1-yl)methyl)-3-(trifluoromethyl)benzamide]
A498
  GI50: 17.6 µM
A549/ATCC
  GI50: 16.2 µM
ACHN
  GI50: 19.7 µM
COLO 205
  GI50: 18.5 µM
DU-145
  GI50: 16.9 µM
EKVX
  GI50: 16 µM
HCC-2998
  GI50: 16.5 µM
HCT-116
  GI50: 6.51 µM
HCT-15
  GI50: 16.4 µM
HT29
  GI50: 13.3 µM
IGROV1
  GI50: 17.2 µM
K-562
  GI50: 1.18 µM
LOX IMVI
  GI50: 12.1 µM
MALME-3M
  GI50: 12.6 µM
MCF7
  GI50: 9.83 µM
MDA-MB-435
  GI50: 10.4 µM
NCI-H23
  GI50: 16.8 µM
NCI-H322M
  GI50: 16.2 µM
NCI-H460
  GI50: 18 µM
NCI-H522
  GI50: 17 µM
OVCAR-3
  GI50: 16.3 µM
OVCAR-4
  GI50: 15 µM
OVCAR-5
  GI50: 15.3 µM
OVCAR-8
  GI50: 18.9 µM
RPMI-8226
  GI50: 11.4 µM
RXF 393
  GI50: 12.5 µM
SF-268
  GI50: 17.3 µM
SF-295
  GI50: 17.3 µM
SF-539
  GI50: 11.3 µM
SK-MEL-28
  GI50: 13.9 µM
SK-MEL-2
  GI50: 17.2 µM
SK-MEL-5
  GI50: 16.1 µM
SK-OV-3
  GI50: 17.6 µM
SN12C
  GI50: 17.3 µM
SNB-19
  GI50: 17 µM
SNB-75
  GI50: 1.17 µM
T-47D
  GI50: 15.8 µM
TK-10
  GI50: 18.5 µM
U251
  GI50: 14.8 µM
UACC-257
  GI50: 14.7 µM
UACC-62
  GI50: 15.9 µM
